# Read-outs that look alike come from different tables or passages of the source.
# Experiments:
# [1] = tested on: patients with CHF; assay: U.S. Carvedilol Heart Failure Trials: mortality studies in CHF patients; type: in vivo, human; conditions: for Risk reduction of mortality / Risk reduction, All Cause Mortality: vs placebo; for All Cause Mortality (%) / Risk reduction, All Cause Mortality: all patients; for All Cause Mortality (%): class II-IV CHF, intention-to-treat, placebo 8.2%; for Risk reduction, All Cause Mortality: 95% CI 42-81
# Description: To determine if β-adrenergic blockade might inhibit the deleterious effects of the sympathetic nervous system on survival in heart failure (CHF), 1052 patients with CHF were prospectively enrolled into a multicenter trial program, in which the patients were randomly assigned (double-blind) to 6-12 months' treatment with placebo (PBO) or carvedilol (CRV). After a common screening period, patients with class II-IV CHF (see next paragraph for the definitions of the classification of CI) and an ejection fraction <0.35 were assigned to one of four protocols based on performance on a 6-minute walk test. PBO or CRV was added to existing therapy with digoxin, diuretics and an ACE inhibitor. All-cause mortality was monitored by a prospectively constituted Data and Safety Monitoring Board (DSMB). After 25 months of enrollment, the DSMB recommended termination of the program because of a favorable effect of CRV on survival. By […], mortality was 8.2% in the PBO group but only 2.9% in the CRV group (P=0.0001. Cochran-Mantel-Haensel analysis). This represented a reduction in risk of death by CRV of 67% (95% CI: 42% to 81%). The treatment effect was similar in patients with class II and class III-IV symptoms. Mortality was reduced in class II patients from 5.9% to 1.9%, a 68% reduction (95% CI: 20% to 97%) [P=0.015,), and in class III-IV patients from 11.0% to 4.2%. a 67% reduction (95% CI 30% to 84%), [P=0.004, a log-rank]. Importantly, the effect of CRV was similar in ischematic heart disease (risk reduced by 67%. P=0.003) and in nonischemic dilated cardiomyopathy (risk reduced by 67%. P=0.014). […] The treatment effect is seen across a broad range of severity and etiology of disease.
# Patients on background therapy with diuretics. ACE inhibitors and/or digoxin were stratified on the basis of baseline […] exercise performance, into one of four trials: • study 220, a dose response study in moderate (NYHA II-IV) CHF with exercise testing as a primary endpoint • study 221, a dose titration study in moderate (NYHA II-IV) CI with exercise testing as a primary endpoint • study 239, a dose titration study in severe (NYHA III-IV) CHF with quality of life as a primary endpoint • study 240, a dose titration study in mild (NYHA II—III) CHF with progression of CHF as a primary endpoint
# Sixty-four centers in the US participated in the trial program. All sites conducted protocols 239 and 240, while 33 performed protocol 220 and 31 performed protocol 221.
# Although each trial had its own individual objectives, the overall program objective defined prospectively was evaluation of all-cause mortality. Based upon a projected enrollment of 1100 patients, the program had 90% power to detect a 50% reduction in mortality (two-sided) between carvedilol and placebo, assuming a mortality rate in the placebo group of 12% over the duration of the trials (α=0.05).
# Randomization was preceded by a screening and challenge period common to the four protocols. The purpose of the screening period was to quality patients for study entry obtain reproducible baseline measurements, and stratify patients into the appropriate trial based on submaximal exercise testing. During the challenge period, patients received low-dose open-label carvedilol (6.25 mg b.i.d.) for two weeks. […] Patients tolerating low-dose carvedilol were then randomized to blinded medication (carvedilol or placebo) with the dose titrated over several weeks in the range of 6.25 to 50 mg b.i.d. (or equivalent level of placebo). The maintenance phase of each study ranged from six to 12 months, after which patients had the option of receiving open-label carvedilol in an extension study.
# The analysis presented below corresponds to the data set on which the DSMB made the recommendation to terminate the trials. Included in this […] analysis are all patients enrolled in the US trials as of Jan. 20, […]; 624 receiving carvedilol and 356 placebo. […]
# [2] = tested on: acute myocardial infarction; conditions: rat model of acute myocardial infarction; cited from earlier work
# [3] = tested on: acute myocardial infarction; conditions: canine model of acute myocardial infarction; cited from earlier work
# [4] = tested on: acute myocardial infarction; conditions: porcine model of acute myocardial infarction; cited from earlier work
# [5] = tested on: patients with CHF; conditions: treatment of CHF; cited from earlier work
compound,measurement,setting,value
COc1ccccc1OCCNCC(O)COc1cccc2[nH]c3ccccc3c12 (centres unmarked) [Carvedilol],Risk reduction of mortality,"[1]; Class II CHF, 95% CI 20-97",68%
same,Risk reduction of mortality,"[1]; Class II CHF, 95% CI 20-97, listed as CRV",68%
same,Mortality (%),"[1]; Class II CHF, placebo 5.9%",(1.9%)
same,Mortality (%),"[1]; Class II CHF, placebo 5.9%, listed as CRV",1.9%
same,Risk reduction of mortality,"[1]; Class III-IV CHF, 95% CI 30-84",66%
same,Risk reduction of mortality,"[1]; Class III-IV CHF, 95% CI 30-84, listed as CRV",67%
same,Mortality (%),"[1]; Class III-IV CHF, placebo 11.0%",(4.2%)
same,Mortality (%),"[1]; Class III-IV CHF, placebo 11.0%, listed as CRV",4.2%
same,Risk reduction of mortality,"[1]; Ischemic Etiology, 95% CI 32-85",67%
same,Risk reduction of mortality,"[1]; Ischemic Etiology, 95% CI 32-85, listed as CRV",67%
same,Mortality (%),"[1]; Ischemic Etiology, placebo 8.9%",(3.2%)
same,Risk reduction of mortality,"[1]; Non-Ischemic Etiology, 95% CI 20-86",67%
same,Risk reduction of mortality,"[1]; Non-Ischemic Etiology, 95% CI 20-86, listed as CRV",67%
same,Mortality (%),"[1]; Non-Ischemic Etiology, placebo 7.3%",(2.5%)
same,All Cause Mortality (%),[1],(2.9%)
same,All Cause Mortality (%),[1]; listed as CRV,2.9%
same,"Risk reduction, All Cause Mortality",[1],67%
same,"Risk reduction, All Cause Mortality",[1]; listed as CRV,67%
same,infarct size,[2],markedly reduces infarct size
same,infarct size,[3],markedly reduces infarct size
same,infarct size,[4],markedly reduces infarct size
CC(C)NCC(O)COc1ccc(COCCOC(C)C)cc1 (centres unmarked) [bisoprolol],"mortality, drug-treated vs placebo-treated patients",[5],no difference in mortality
COCCc1ccc(OCC(O)CNC(C)C)cc1 (centres unmarked) [metoprolol],"mortality, drug-treated vs placebo-treated patients",[5],no difference in mortality

# — patent USRE40707E1, “Use of carbazole compounds for the treatment of congestive heart failure” (SB Pharmco Puerto Rico Inc., priority 1995, dated 2009)
